ChEMBL document CHEMBL5291721, “A preclinical secondary pharmacology resource illuminates target-adverse drug reaction associations of marketed drugs” (Nat Commun, 2023)

What was measured:
Histamine H1 receptor = Histamine H1 receptor (Homo sapiens, UniProt P35367)
[1] = target: Gamma-aminobutyric acid receptor subunit alpha-1/alpha-2/beta-2/gamma-2 (Homo sapiens, UniProt P14867+P18507+P47869+P47870); format: protein-complex assay
[2] = target: T1, Muscarinic acetylcholine receptor M1 (Homo sapiens, UniProt P11229); format: functional, cell-based
T1 sequence (P11229 whole entry): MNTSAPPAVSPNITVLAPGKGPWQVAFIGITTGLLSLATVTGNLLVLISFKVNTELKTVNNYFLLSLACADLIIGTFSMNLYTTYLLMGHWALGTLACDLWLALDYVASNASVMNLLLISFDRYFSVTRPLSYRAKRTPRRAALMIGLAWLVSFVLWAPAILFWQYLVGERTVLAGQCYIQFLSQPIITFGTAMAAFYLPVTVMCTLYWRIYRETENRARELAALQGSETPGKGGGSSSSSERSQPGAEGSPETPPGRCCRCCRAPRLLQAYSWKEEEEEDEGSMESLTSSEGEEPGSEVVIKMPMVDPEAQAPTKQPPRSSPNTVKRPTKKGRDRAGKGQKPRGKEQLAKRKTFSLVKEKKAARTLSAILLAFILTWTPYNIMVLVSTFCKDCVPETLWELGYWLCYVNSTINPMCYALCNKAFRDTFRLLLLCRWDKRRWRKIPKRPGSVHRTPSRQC

Melanocortin receptor 3 = Melanocortin receptor 3 (Homo sapiens, UniProt P41968)
Melanocortin receptor 3, sequence (P41968 whole entry): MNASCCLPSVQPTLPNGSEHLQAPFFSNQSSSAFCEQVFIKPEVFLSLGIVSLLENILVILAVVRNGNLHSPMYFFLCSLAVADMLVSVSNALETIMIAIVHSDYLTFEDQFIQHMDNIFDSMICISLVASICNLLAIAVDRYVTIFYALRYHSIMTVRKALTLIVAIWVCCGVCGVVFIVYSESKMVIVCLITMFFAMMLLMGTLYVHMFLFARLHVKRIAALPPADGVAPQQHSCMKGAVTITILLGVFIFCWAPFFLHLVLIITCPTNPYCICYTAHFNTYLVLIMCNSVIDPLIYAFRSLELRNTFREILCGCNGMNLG

Adenosine receptor A3 = target: T2, Adenosine receptor A3 (Homo sapiens, UniProt P0DMS8)
T2 sequence (P0DMS8 whole entry): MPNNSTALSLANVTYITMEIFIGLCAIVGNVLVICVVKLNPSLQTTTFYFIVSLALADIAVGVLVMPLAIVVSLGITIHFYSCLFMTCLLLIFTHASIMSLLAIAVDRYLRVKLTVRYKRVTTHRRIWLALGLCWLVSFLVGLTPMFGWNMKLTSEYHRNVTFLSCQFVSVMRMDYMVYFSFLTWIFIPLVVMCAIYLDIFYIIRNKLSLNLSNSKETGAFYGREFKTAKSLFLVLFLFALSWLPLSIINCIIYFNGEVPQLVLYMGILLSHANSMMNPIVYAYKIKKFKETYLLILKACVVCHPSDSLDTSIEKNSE

Androgen receptor = target: T3, Androgen receptor (Homo sapiens, UniProt P10275)
T3 sequence (P10275 whole entry): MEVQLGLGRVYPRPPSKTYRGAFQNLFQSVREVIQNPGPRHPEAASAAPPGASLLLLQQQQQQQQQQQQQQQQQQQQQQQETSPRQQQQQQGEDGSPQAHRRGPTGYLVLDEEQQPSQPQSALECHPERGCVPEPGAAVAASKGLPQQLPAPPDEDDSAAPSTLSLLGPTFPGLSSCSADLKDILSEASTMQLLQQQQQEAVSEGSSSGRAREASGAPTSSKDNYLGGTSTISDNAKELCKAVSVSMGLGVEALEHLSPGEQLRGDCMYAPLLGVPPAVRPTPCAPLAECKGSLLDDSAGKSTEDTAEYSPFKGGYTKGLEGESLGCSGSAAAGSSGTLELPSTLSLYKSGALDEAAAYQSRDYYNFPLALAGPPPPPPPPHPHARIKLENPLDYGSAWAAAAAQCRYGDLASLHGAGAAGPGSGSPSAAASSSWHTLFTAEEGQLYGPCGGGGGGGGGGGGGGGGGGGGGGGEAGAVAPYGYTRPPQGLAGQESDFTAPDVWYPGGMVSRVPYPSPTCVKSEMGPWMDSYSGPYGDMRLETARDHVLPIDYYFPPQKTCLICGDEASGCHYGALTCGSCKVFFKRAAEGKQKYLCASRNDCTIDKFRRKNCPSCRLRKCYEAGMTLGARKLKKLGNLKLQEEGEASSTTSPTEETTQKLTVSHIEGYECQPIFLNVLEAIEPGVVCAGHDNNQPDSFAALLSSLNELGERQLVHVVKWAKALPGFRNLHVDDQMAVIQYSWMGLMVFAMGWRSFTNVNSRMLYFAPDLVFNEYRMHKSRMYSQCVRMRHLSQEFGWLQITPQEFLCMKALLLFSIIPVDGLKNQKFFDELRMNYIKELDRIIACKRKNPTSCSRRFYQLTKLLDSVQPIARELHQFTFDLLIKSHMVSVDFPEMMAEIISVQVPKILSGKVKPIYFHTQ

[3] = target: T4, 5-hydroxytryptamine receptor 2C (Homo sapiens, UniProt P28335)
T4 sequence (P28335 whole entry): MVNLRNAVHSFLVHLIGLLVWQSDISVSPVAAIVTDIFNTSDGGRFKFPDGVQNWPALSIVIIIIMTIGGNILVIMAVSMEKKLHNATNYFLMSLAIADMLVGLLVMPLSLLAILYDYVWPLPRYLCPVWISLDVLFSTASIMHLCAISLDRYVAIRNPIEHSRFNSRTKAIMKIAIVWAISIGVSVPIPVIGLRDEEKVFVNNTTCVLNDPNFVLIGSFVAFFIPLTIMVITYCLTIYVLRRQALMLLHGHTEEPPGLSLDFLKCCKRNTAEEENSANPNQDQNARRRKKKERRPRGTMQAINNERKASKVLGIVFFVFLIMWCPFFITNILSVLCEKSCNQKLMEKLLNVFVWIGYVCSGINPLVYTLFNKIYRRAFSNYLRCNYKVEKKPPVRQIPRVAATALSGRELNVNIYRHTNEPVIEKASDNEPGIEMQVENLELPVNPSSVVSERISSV

[4] = target: T5, Alpha-2A adrenergic receptor (Homo sapiens, UniProt P08913); format: functional, cell-based
T5 sequence (P08913 whole entry): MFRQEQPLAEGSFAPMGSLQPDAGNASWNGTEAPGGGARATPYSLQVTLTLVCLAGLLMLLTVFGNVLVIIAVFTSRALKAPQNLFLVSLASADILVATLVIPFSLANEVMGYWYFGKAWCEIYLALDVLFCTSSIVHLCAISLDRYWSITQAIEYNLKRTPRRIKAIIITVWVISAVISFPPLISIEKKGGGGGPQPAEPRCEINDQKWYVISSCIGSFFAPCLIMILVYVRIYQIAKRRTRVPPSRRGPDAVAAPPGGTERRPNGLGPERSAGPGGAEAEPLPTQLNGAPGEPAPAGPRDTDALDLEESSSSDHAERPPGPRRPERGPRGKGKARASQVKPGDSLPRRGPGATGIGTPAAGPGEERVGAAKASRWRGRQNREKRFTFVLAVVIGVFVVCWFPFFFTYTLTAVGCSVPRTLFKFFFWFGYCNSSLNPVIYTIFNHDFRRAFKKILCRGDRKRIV

D(3) dopamine receptor = D(3) dopamine receptor (Homo sapiens, UniProt P35462)
D(3) dopamine receptor, sequence (P35462 whole entry): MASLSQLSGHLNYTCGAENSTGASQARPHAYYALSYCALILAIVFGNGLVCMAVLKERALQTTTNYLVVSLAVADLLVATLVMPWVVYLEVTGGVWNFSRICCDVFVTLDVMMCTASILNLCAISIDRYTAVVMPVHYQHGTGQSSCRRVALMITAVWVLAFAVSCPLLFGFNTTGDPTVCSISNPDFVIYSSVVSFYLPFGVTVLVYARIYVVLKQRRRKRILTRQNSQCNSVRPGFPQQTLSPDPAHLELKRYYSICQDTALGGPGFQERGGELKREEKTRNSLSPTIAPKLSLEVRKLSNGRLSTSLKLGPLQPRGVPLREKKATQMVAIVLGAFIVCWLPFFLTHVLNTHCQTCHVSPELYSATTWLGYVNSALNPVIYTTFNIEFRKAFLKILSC

[5] = target: T5, Alpha-2A adrenergic receptor; format: functional, cell-based; remark: listed apart in the source
Also: assay procedure not described here.

Gamma-aminobutyric acid receptor subunit alpha-1/alpha-2/beta-2/gamma-2, sequence (P14867 whole entry): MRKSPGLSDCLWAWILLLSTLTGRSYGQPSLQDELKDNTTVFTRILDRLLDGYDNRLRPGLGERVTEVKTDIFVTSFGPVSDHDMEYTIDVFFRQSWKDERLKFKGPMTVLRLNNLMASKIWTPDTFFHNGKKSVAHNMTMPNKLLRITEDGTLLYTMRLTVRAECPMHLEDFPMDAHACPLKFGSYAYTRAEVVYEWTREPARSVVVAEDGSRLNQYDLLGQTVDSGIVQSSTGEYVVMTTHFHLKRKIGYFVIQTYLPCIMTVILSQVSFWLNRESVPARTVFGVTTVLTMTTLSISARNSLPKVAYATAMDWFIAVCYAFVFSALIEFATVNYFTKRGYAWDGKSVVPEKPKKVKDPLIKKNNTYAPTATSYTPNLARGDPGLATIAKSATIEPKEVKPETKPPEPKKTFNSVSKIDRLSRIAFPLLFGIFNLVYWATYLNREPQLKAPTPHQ
Gamma-aminobutyric acid receptor subunit alpha-1/alpha-2/beta-2/gamma-2, sequence (P47870 whole entry): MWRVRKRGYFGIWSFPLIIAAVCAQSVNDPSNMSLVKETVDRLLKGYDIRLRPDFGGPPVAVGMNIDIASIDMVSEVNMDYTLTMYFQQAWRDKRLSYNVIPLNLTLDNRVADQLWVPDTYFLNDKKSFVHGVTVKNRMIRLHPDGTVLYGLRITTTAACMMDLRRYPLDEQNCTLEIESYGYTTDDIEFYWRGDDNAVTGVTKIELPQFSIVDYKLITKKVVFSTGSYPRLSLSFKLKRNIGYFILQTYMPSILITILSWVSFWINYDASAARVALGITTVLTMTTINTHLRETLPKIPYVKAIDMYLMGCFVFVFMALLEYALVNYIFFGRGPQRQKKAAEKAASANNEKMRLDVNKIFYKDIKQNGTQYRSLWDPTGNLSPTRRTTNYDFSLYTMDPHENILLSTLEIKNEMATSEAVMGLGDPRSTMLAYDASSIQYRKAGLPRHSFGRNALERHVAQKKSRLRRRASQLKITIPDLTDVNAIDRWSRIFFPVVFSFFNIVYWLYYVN
Gamma-aminobutyric acid receptor subunit alpha-1/alpha-2/beta-2/gamma-2, sequence (P18507 whole entry): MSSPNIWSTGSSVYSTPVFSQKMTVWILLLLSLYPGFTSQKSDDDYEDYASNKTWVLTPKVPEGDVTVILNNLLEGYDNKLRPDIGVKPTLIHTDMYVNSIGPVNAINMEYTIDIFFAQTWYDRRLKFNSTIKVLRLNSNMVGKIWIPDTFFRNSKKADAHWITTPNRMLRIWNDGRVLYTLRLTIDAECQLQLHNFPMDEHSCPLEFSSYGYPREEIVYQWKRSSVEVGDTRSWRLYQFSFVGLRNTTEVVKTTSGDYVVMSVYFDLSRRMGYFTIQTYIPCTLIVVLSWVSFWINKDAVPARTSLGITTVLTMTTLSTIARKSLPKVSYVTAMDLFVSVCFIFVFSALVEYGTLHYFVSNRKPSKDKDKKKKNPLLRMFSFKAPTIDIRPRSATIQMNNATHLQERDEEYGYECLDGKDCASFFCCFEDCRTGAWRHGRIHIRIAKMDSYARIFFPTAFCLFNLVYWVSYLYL
Gamma-aminobutyric acid receptor subunit alpha-1/alpha-2/beta-2/gamma-2, sequence (P47869 whole entry): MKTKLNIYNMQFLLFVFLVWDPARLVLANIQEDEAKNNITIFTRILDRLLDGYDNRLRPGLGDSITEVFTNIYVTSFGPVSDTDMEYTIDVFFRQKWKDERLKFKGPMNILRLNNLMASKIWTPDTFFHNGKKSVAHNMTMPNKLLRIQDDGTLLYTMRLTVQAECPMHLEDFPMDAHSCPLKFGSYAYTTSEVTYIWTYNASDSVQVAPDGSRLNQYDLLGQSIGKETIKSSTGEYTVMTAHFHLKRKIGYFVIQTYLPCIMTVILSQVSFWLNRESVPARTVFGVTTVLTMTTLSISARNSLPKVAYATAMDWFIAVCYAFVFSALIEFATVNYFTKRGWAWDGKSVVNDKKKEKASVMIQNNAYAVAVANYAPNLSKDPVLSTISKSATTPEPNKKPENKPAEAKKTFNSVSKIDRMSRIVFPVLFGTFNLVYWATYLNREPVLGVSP
Histamine H1 receptor, sequence (P35367 whole entry): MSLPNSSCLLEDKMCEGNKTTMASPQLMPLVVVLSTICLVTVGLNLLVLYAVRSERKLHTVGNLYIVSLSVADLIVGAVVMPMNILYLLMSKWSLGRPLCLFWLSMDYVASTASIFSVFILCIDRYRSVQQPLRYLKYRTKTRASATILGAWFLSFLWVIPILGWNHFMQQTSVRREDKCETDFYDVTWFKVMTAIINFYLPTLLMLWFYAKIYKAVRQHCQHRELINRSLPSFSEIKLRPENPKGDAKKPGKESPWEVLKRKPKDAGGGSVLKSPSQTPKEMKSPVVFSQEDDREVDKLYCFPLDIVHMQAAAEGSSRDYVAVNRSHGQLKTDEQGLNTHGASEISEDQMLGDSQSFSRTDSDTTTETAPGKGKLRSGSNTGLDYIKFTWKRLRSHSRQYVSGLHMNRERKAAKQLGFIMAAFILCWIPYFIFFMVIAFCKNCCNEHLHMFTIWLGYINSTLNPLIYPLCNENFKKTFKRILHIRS

O=C(O)c1cccc(-c2noc(-c3ccccc3F)n2)c1
AC50 (Histamine H1 receptor): > 10 µM
AC50 [1]: > 30 µM
AC50 [2]: > 30 µM
AC50 (Melanocortin receptor 3): > 30 µM
AC50 (Adenosine receptor A3): > 30 µM

Cc1c(O)cccc1C(=O)N[C@@H](CSc1ccccc1)[C@H](O)CN1C[C@H]2CCCC[C@H]2C[C@H]1C(=O)NC(C)(C)C
AC50 (Androgen receptor): > 30 µM
AC50 [1]: > 30 µM

CCCC1C(=O)N2C(N(C)C)=Nc3ccc(C)cc3N2C1=O (stereo not drawn) [APAZONE]
AC50 [1]: > 30 µM
AC50 [2]: > 30 µM

CCS(=O)(=O)N1CC(CC#N)(n2cc(-c3ncnc4[nH]ccc34)cn2)C1 [BARICITINIB]
AC50 (Androgen receptor): > 30 µM
AC50 [2]: > 30 µM

O=C1CN=C(c2ccccc2)c2c(sc3c2CCCC3)N1 [BENTAZEPAM]
AC50 (Androgen receptor): 1.24 µM
AC50 [2]: > 30 µM

O=C(O)CCCN1CCC(O[C@@H](c2ccc(Cl)cc2)c2ccccn2)CC1 [BEPOTASTINE]
AC50 (Androgen receptor): > 30 µM
AC50 [2]: > 30 µM

CN(Cc1cc(Br)cc(Br)c1N)C1CCCCC1 [BROMHEXINE]
AC50 [1]: > 30 µM

CCCC[N+]1(C)[C@@H]2C[C@@H](OC(=O)[C@H](CO)c3ccccc3)C[C@H]1[C@@H]1O[C@@H]12 (stereo partly drawn) [BUTYLSCOPOLAMINE]
AC50 (Androgen receptor): > 30 µM

O=C(c1ccc(F)c(F)c1Nc1ccc(I)cc1F)N1CC(O)([C@@H]2CCCCN2)C1 [COBIMETINIB]
AC50 (Androgen receptor): > 30 µM
AC50 [2]: 17.4 µM

CN1CCN(C(c2ccccc2)c2ccccc2)CC1 [CYCLIZINE]
AC50 (Androgen receptor): > 30 µM
AC50 [1]: > 30 µM

NS(=O)(=O)c1cc2c(cc1Cl)NC(C1CC3C=CC1C3)NS2(=O)=O (stereo not drawn) [CYCLOTHIAZIDE]
AC50 (Androgen receptor): > 30 µM
AC50 [2]: > 30 µM

Nc1nc(-n2cc(C(=O)O)c(=O)c3cc(F)c(N4CC(O)C4)c(Cl)c32)c(F)cc1F [DELAFLOXACIN]
AC50 (Androgen receptor): > 30 µM
AC50 [1]: > 30 µM
AC50 [2]: > 30 µM

C[C@@H]1C[C@H]2[C@@H]3CCC4=CC(=O)C=C[C@]4(C)[C@@]3(F)[C@@H](O)C[C@]2(C)[C@H]1C(=O)CO [DESOXIMETASONE]
AC50 [1]: > 30 µM

COc1ccc(-c2cc(=O)c3c(O)cc(O[C@@H]4O[C@H](CO[C@@H]5O[C@@H](C)[C@H](O)[C@@H](O)[C@H]5O)[C@@H](O)[C@H](O)[C@H]4O)cc3o2)cc1O [DIOSMIN]
AC50 [1]: > 30 µM
AC50 [2]: > 30 µM

O=C(Nc1ccccc1)OCC(CN1CCCCC1)OC(=O)Nc1ccccc1 (stereo not drawn) [DIPERODON]
AC50 [3]: > 10 µM
AC50 (Histamine H1 receptor): > 10 µM
AC50 [1]: > 30 µM
AC50 [2]: > 30 µM
AC50 [4]: > 10 µM
AC50 (D(3) dopamine receptor): 1.3 µM
AC50 (Melanocortin receptor 3): > 30 µM
AC50 [5]: > 10 µM
AC50 (Adenosine receptor A3): > 30 µM

CCOc1ccc(/C=C2\NCCc3cc(OCC)c(OCC)cc32)cc1OCC [DROTAVERINE]
AC50 (Androgen receptor): > 30 µM
AC50 [1]: > 30 µM
AC50 [2]: > 30 µM

CC1=NN(c2ccccc2)C(=O)C1 [EDARAVONE]
AC50 [1]: > 30 µM

N/N=c1/cc2c(n[nH]1)CCN(C(=O)c1ccccc1)C2 [ENDRALAZINE]
AC50 (Androgen receptor): > 30 µM
AC50 [3]: > 30 µM
AC50 (Histamine H1 receptor): > 30 µM
AC50 [4]: > 30 µM
AC50 (D(3) dopamine receptor): > 30 µM
AC50 [5]: > 30 µM

CCOC(=O)C(c1c(O)c2ccccc2oc1=O)c1c(O)c2ccccc2oc1=O [ETHYL BISCOUMACETATE]
AC50 (Androgen receptor): > 30 µM
AC50 [2]: > 30 µM

Cc1nc(-c2ccc(OCC(C)C)c(C#N)c2)sc1C(=O)O [FEBUXOSTAT]
AC50 (Androgen receptor): > 30 µM
AC50 [2]: > 30 µM

C[C@@H]1C[C@H]2[C@@H]3C[C@H](F)C4=CC(=O)C(Cl)=C[C@]4(C)[C@@]3(F)[C@@H](O)C[C@]2(C)[C@@]1(O)C(=O)CO [HALOMETASONE]
AC50 (Androgen receptor): 10.3 µM
AC50 [2]: > 30 µM

CC/C=C\C/C=C\C/C=C\C/C=C\C/C=C\CCCC(=O)O [ICOSAPENT]
AC50 [1]: > 30 µM
AC50 [2]: > 30 µM

Oc1c(I)cc(I)c2cccnc12 [IODOQUINOL]
AC50 [1]: > 30 µM

O=C(NC1CCN(CCCCC2(C(=O)NCC(F)(F)F)c3ccccc3-c3ccccc32)CC1)c1ccccc1-c1ccc(C(F)(F)F)cc1 [LOMITAPIDE]
AC50 (Androgen receptor): > 30 µM
AC50 [2]: > 30 µM

CCOC(=O)CC(SP(=S)(OC)OC)C(=O)OCC (stereo not drawn) [MALATHION]
AC50 (Androgen receptor): > 30 µM
AC50 [2]: > 30 µM

CN1C(=O)N(C)C2C1N(C)C(=O)N2C (stereo not drawn) [MEBICAR]
AC50 (Androgen receptor): > 30 µM
AC50 [3]: > 30 µM
AC50 (Histamine H1 receptor): > 30 µM
AC50 [4]: > 30 µM
AC50 (D(3) dopamine receptor): > 30 µM
AC50 [5]: > 30 µM

CC(=O)OC(C)C[N+](C)(C)C (stereo not drawn) [METHACHOLINE]
AC50 [1]: > 30 µM
AC50 [2]: 0.0079 µM

C1N2CN3CN1CN(C2)C3 [METHENAMINE]
AC50 (Androgen receptor): > 30 µM
AC50 [2]: > 30 µM

O=[N+]([O-])c1cncn1CCN1CCOCC1 [NIMORAZOLE]
AC50 (Androgen receptor): > 30 µM
AC50 [2]: > 30 µM

NC(=O)c1cccc2cn(-c3ccc([C@@H]4CCCNC4)cc3)nc12 [NIRAPARIB]
AC50 (Androgen receptor): > 30 µM
AC50 [2]: > 30 µM

COc1ccc2c(c1)OC(C)(C)C(c1ccccc1)C2c1ccc(OCCN2CCCC2)cc1 (stereo not drawn) [ORMELOXIFENE]
AC50 [1]: > 10 µM
AC50 [2]: 10.5 µM

Oc1cccc2cccnc12 [OXYQUINOLINE]
AC50 [1]: > 30 µM

Nc1nc2c(ncn2CCC(CO)CO)c(=O)[nH]1 [PENCICLOVIR]
AC50 [1]: > 30 µM

CC[C@@H]1/C=C(\C)C[C@H](C)C[C@H](OC)[C@H]2O[C@@](O)(C(=O)C(=O)N3CCCC[C@H]3C(=O)O[C@H](/C(C)=C/[C@@H]3CC[C@H](Cl)[C@H](OC)C3)[C@H](C)[C@@H](O)CC1=O)[C@H](C)C[C@@H]2OC [PIMECROLIMUS]
AC50 [1]: > 10 µM
AC50 [2]: > 30 µM

COc1cc2c(cc1OC)[C@H]1C[C@@H](OC(=O)[C@@H](N)C(C)C)[C@H](CC(C)C)CN1CC2 [VALBENAZINE]
AC50 (Androgen receptor): > 30 µM
AC50 [2]: > 30 µM
